Literature values as cited in patent US11058735B2, “Formulations containing pomegranate seed oil, rosa canina fruit oil and inula viscosa oleoresin or extract” (POMEGA, INC., priority 2014, dated 2021).

Settings: compared with grape seed extract, background statement

CCCC\C=C/C=C/C=C\CCCCCCCC(=O)O [Punicic acid]
antioxidant power relative to grape seed extract: approximately 10 times
